Test results published in US20140123342A1, “Regulation of Stomatal Apertures by Apyrases and Extracellular Nucleotides” (BOARD OF REGENTS, THE UNIVERSITY OF TEXAS SYSTEM, priority 2011, published 2014).

Tests used:
Format in all cases: cell-based, Arabidopsis thaliana
[1] = system: stomata (guard cells) in whole leaves; assay: Stomatal aperture closure studies, whole leaves in the light; settings: for effect on ABA-induced stomatal closure / effect on ATPγS-induced stomatal closure: co-incubation
Description: (§1) Stomatal Aperture Studies: Arabidopsis thaliana ecotypes Columbia (Col-0) and Wassilewskija (WS) were used as wild types in this study. Col-0, nia1nia2, atrbohD/F, R2-4A and WS plants were all grown on autoclaved Metro-Mix 200 soil at 22° C. under continuous light. The mutant seeds nia1nia2 nia2-5; CS 2356; Col-0 background) were obtained from Dr. N. M. Crawford (University of California at San Diego) and the mutant seeds atrbohD/F (Col-0 background) were obtained from Dr. J. M. Kwak (University of Maryland). The RNAi mutant apyrase line (R2-4A) is in WS background, so WS ecotype was used as the control wild type for these studies. Leaves from 2 to 3 week old Col-0 plants, or R2-4A and WS plants treated with 4 μM estradiol for 1 week after development of mature basal leaves were used for peel and whole leaf studies. Plants were placed in the dark and watered 24 h before an study. For opening studies, plants were used immediately after 24 h dark treatment and all treatments were done in the dark except for the light treated leaves or peels, thus the control stomata are dark controls. For closure studies, plants were placed in the light 3 h before an study to induce stomatal opening and all treatments were done in the light, thus the control stomata are light controls. For peel studies, epidermal peels were made from the underside of the leaf and treatments were applied to the peels for 1 h. For whole leaf studies, leaves were removed and treatments were applied for 2 h. For each treatment, about 3 or 4 peels collected from different leaves or 3 or 4 different leaves of at least two different plants were floated with the abaxial side up in petri dishes on 3 mL of Arabidopsis leaf buffer consisting of 10 mM KCl, 25 mM MES pH 6.15 (Melotto et al., 2006) and the chemical being tested. For whole leaf studies peels were collected after the treatment.
(§2) For studies testing the effects of ATPγS, ADPγS, AMPS, RB2, and PPADS (Sigma, St. Louis, Mo., USA) 20 mM stocks were made by dissolving the compounds in de-ionized water. For studies testing the effects of apyrase inhibitors, 7.5 mg/mL of NGXT191 and of inhibitor #13 (Windsor et al., 2002) was dissolved in dimethyl sulfoxide (DMSO) and then applied at a dilution of […] for a final concentration of 0.1% DMSO. ABA (Sigma, St. Louis, Mo., USA) was dissolved in ethanol in 10 mM stocks and then applied at a dilution of 1:1000. The stocks were stored at −20° C. while not in use. The production of the anti-AtAPY1 antibodies used is described by Steinebrunner et al. (2003). The crude immune and pre-immune sera were purified using protein A-Sepharose following the protocol described by Martin (1982) with the slight modification that the buffers used were azide-free. The protein-A purified sera were both used at a 1:1000 dilution in leaf stomatal aperture studies. The concentration of the immune and pre-immune sera, determined by Bradford assay (Bio-Rad), was 10.2 μg/mL and 7.7 μg/mL, respectively.
(§3) After treatment, photos of stomata were taken using a light microscope at 20×. Stomatal aperture width was measured using the image processing software ImageJ. Typically, photos were taken of 70 to 90 stomata per treatment of which only 50 stomata were measured for each treatment. For each treatment the ratio of closed stomata (width of 0) to open stomata was determined for all stomata imaged and this ratio was maintained in the 50 stomata that were measured for each treatment. Data shown uses apertures determined as width/length, however data in all studies also obtained as width only and generally width/length and width only data are in agreement with each other. Statistical significance of the measurements for the treatments was determined using the Student's t test in Microsoft Excel.

[2] = system: stomata (guard cells) in whole leaves; assay: Stomatal aperture opening studies, whole leaves in the dark
Description: as §1
as §2, with “The crude immune and pre-immune sera were purified using protein A-Sepharose following the protocol described by Martin (1982) with the slight modification that the buffers used were azide-free. The protein-A purified sera were both used at a 1:1000 dilution in leaf stomatal aperture studies.” left out
as §3

[3] = system: stomata (guard cells) in epidermal peels; assay: Stomatal aperture closure studies, epidermal peels in the light
Description: as §1, §2, §3

[4] = system: stomata (guard cells) in epidermal peels; assay: Stomatal aperture opening studies, epidermal peels in the dark
Description: as §1, §2, §3

[5] = 30 μM, whole leaf studies (not shown)
[6] = co-incubation, 30 μM, leaves (data not shown)
[7] = co-incubation, epidermal peel studies (data not shown)

Nc1c(S(=O)(=O)O)cc(Nc2ccc(Nc3nc(Cl)nc(Nc4cccc(S(=O)(=O)O)c4)n3)c(S(=O)(=O)O)c2)c2c1C(=O)c1ccccc1C2=O [RB2, reactive blue 2]
effect on stomatal aperture ([1]; 30 μM alone, closure studies, leaves): no effect alone | effect on ABA-induced stomatal closure [1, 5]: partially block | effect on ATPγS-induced stomatal closure [1, 5]: block | effect on stomatal aperture ([2]; 30 μM alone, opening studies, leaves): no effect by itself | effect on ATPγS-induced stomatal opening [2, 6]: block | effect on light-induced stomatal opening [2, 6]: partially block

Cc1cccc(NS(=O)(=O)c2ccc(-c3ccccc3)cc2)c1 [NGXT 191, N-(3-methylphenyl)-4-biphenylsulfonamide]
effect on stomatal aperture ([3]; 7.5 μg/mL, epidermal peels, light, 1 h): induced stomatal closure

Nc1ncnc2c1ncn2[C@@H]1O[C@H](COP(O)(O)=S)[C@@H](O)[C@H]1O [AMPS]
effect on stomatal aperture ([4]; 15 μM, darkness, 1 h): no effect on stomatal aperture | effect on stomatal aperture ([3]; 200 μM, dose-response tests, summary statement): neither 15 μM nor 200 μM AMPS has any effect | effect on stomatal aperture ([3]; 250 μM, epidermal peels, light, 1 h): no effect on stomatal aperture

Cc1nc(N=Nc2ccc(S(=O)(=O)O)cc2S(=O)(=O)O)c(COP(=O)(O)O)c(C=O)c1O [PPADS, pyridoxalphosphate-6-azo-phenyl-2′,4′-disulphonic acid]
effect on stomatal aperture ([4]; 100 μM alone, opening studies): no effect alone | effect on light-induced stomatal opening ([4]; co-incubation, 100 μM): partially blocked | effect on ATPγS-induced stomatal opening ([4]; co-incubation, 100 μM, with 15 μM ATPγS): blocked | effect on stomatal aperture ([1]; 100 μM alone, leaves, light): no effect alone | effect on ABA-induced stomatal closure ([1]; 100 μM, with 10 μM ABA, leaves): partially blocked | effect on ATPγS-induced stomatal closure ([1]; 100 μM, with 200 μM ATPγS, leaves): blocked | effect on stomatal aperture ([3]; 100 μM alone, epidermal peels, light): no effect by itself | effect on NGXT 191-induced stomatal closure ([3]; co-incubation, 100 μM, with 7.5 μg/mL NGXT 191, epidermal peels): blocked | effect on ABA-induced stomatal closure [3, 7]: partially block | effect on ATPγS-induced stomatal closure [3, 7]: block | effects in opening studies compared with epidermal peels ([2]; whole leaves (data not shown), alone, on ATPγS-induced and on light-induced opening): the same effects

O=C(Nc1cccc([N+](=O)[O-])c1)c1cccc(S(=O)(=O)Nc2ccc(Br)cc2)c1 [apyrase inhibitor #13, 3-{[(4-bromophenyl)amino]sulfonyl}-N-(3-nitrophenyl)benzamide]
effect on stomatal aperture ([1]; 7.5 μg/mL, whole leaves (data not shown)): caused stomatal closure
